Laboratory results from patent US20240101562A1, “NOVEL COMPOUND, AND PHARMACEUTICAL COMPOSITION FOR PREVENTING OR TREATING RESISTANT CANCER, COMPRISING SAME” (HOLOSMEDIC, priority 2020, published 2024).

Assays:
Type in all cases: cell-based
[1] = system: SKOV3-TR cell line (paclitaxel-resistant, derived from SKOV3); experiment: WST-1 assay, co-treatment with paclitaxel, SKOV3-TR; details: paclitaxel alone, 3 μM or 4 μM, three days
Method: (§1) According to the results of WST-1 assays, which measure cell proliferation or survival, a reduction in metabolism in SKOV3 and SKOV3-TR was induced by paclitaxel treatment. The WST-1 assays were performed after SKOV3 and SKOV3-TR were co-treated with 79 types of compounds and paclitaxel.
(§2) Specifically, the two cancer cell lines grown in 96-well plates were treated with the 79 types of compounds at a low concentration (0.5 μM) or a high concentration (2 μM) and paclitaxel, and the paclitaxel concentration used herein was 3 μM or 4 μM for the SKOV3-TR cell line, and 2 nM or 0.05 μM for the SKOV3 cell line. For cytotoxicity analysis, three days after co-treatment of DMSO (paclitaxel, compound solvent), paclitaxel and the 79 types of compounds, the WST-1 assays were performed.

[2] = system: SKOV3 cell line (epithelial ovarian cancer); experiment: WST-1 assay, co-treatment with paclitaxel, SKOV3; details: paclitaxel alone, 2 nM or 0.05 μM, SKOV3, three days
Method: as §1, §2

[3] = system: SKOV3-TR cell line (paclitaxel-resistant, derived from SKOV3); experiment: WST-1 assay, co-treatment with docetaxel, SKOV3-TR; details: docetaxel alone, 1 μM, three days
Method: (§3) According to the results of WST-1 assays, which measure cell proliferation or survival, a reduction in metabolism in SKOV3 and SKOV3-TR was induced by docetaxel treatment.
(§4) After SKOV3 and SKOV3-TR were co-treated with 79 types of compounds and docetaxel, the WST-1 assays were performed.
(§5) Specifically, the two cancer cell lines grown in 96-well plates were treated with the 79 types of compounds at a low concentration (0.5 μM) or a high concentration (2 μM) and docetaxel, and the docetaxel concentration used herein were 1 μM for the SKOV3-TR cell line and 0.75 nM for the SKOV3 cell line. For cytotoxicity analysis, three days after the co-treatment of DMSO (docetaxel, compound solvent), docetaxel and the 79 types of compounds, the WST-1 assays were performed.

[4] = system: SKOV3 cell line (epithelial ovarian cancer); experiment: WST-1 assay, co-treatment with docetaxel, SKOV3; details: docetaxel alone, 0.75 nM, SKOV3, three days
Method: as §3, §4, §5

Row | Structure (SMILES) | absorbance at 450 nm compared to the DMSO-treated group [1] | absorbance at 450 nm compared to the DMSO-treated group [2] | absorbance at 450 nm compared to the DMSO-treated group [3] | absorbance at 450 nm compared to the DMSO-treated group [4]
1 | CC(=O)O[C@H]1C(=O)[C@@]2(C)[C@H]([C@H](OC(=O)c3ccccc3)[C@]3(O)C[C@H](OC(=O)[C@H](O)[C@@H](NC(=O)c4ccccc4)c4ccccc4)C(C)=C1C3(C)C)[C@]1(OC(C)=O)CO[C@@H]1C[C@@H]2O [paclitaxel] | reduced | reduced | – | –
2 | CC(=O)O[C@@]12CO[C@@H]1C[C@H](O)[C@@]1(C)C(=O)[C@H](O)C3=C(C)[C@@H](OC(=O)[C@H](O)[C@@H](NC(=O)OC(C)(C)C)c4ccccc4)C[C@@](O)([C@@H](OC(=O)c4ccccc4)[C@H]21)C3(C)C [docetaxel] | – | – | reduced | reduced
